Test results taken from patent US6914045B2, “Glycopeptide antibiotics” (Wyeth Holdings Corporation, priority 2001, dated 2005).
≈ marks a conversion by molar mass, not a printed value.

Columns and labels:
Experiment in all cases: in vitro antibacterial evaluation, MIC by broth dilution
Assay type in all cases: cell-based
[1] = system: Enterococcus sp.; settings: broth dilution, 18 hours at 35° C.
How it was run: (§1)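 Inoculum 5×10^5 CFU/mL; concentrations 64 to 0.06 μg/mL; MIC defined as lowest inhibitory level. Conducted by broth dilution under NCCLS guidelines.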

[2] = system: Streptococcus sp.; settings: broth dilution, 18 hours at 35° C.
How it was run: as §1

[3] = system: Escherichia coli; settings: 18 hours at 35° C.
How it was run: as §1

[4] = system: Staphylococcus sp.; settings: broth dilution, 18 hours at 35° C.
How it was run: as §1

CC(c1ccccc1)C1NC(=O)CNC(=O)C(CO)NC(=O)C(C(O)C2CNC(=N)N2C2OC(CO)C(O)C(O)C2O)NC(=O)C(C(O)C2CNC(=N)N2)NC(=O)C(Cc2ccc(OC3OC(CO)C(OC4OC(CO)C(O)C5OC(c6ccccc6)OC45)C(O)C3O)cc2)NC1=O (single isomer, unassigned) [Example 104b, Cyclo[glycyl-β-methylphenylalanyl-O-[4-O-(2,3-O-benzylidenehexopyranosyl)hexopyranosyl]-tyrosyl-3-(2-iminoimidazolidin-4-yl)seryl-3-(3-hexopyranosyl-2-iminoimidazolidin-4-yl)-serylseryl]]
MIC Enterococcus avium (GC 4558) ([1]; Enterococcus avium (GC 4558)): 0.5 µg/mL (≈ 0.361 µM)
MIC Enterococcus faecalis (ATCC 29212) ([1]; Enterococcus faecalis (ATCC 29212)): 0.5 µg/mL (≈ 0.361 µM)
MIC Enterococcus faecalis (GC 2242) ([1]; Enterococcus faecalis (GC 2242)): 0.5 µg/mL (≈ 0.361 µM)
MIC Enterococcus faecalis (GC 2691) ([1]; Enterococcus faecalis (GC 2691)): 0.5 µg/mL (≈ 0.361 µM)
MIC Enterococcus faecalis (GC 3059) ([1]; Enterococcus faecalis (GC 3059)): 0.5 µg/mL (≈ 0.361 µM)
MIC Enterococcus faecalis (GC 4552) ([1]; Enterococcus faecalis (GC 4552)): 0.5 µg/mL (≈ 0.361 µM)
MIC Enterococcus faecalis (GC 4553) ([1]; Enterococcus faecalis (GC 4553)): 0.5 µg/mL (≈ 0.361 µM)
MIC Enterococcus faecalis (GC 4554) ([1]; Enterococcus faecalis (GC 4554)): 0.5 µg/mL (≈ 0.361 µM)
MIC Enterococcus faecalis (GC 6189) ([1]; Enterococcus faecalis (GC 6189)): 0.5 µg/mL (≈ 0.361 µM)
MIC Enterococcus faecium (GC 2243) ([1]; Enterococcus faecium (GC 2243)): 0.5 µg/mL (≈ 0.361 µM)
MIC Enterococcus faecium (GC 4556) ([1]; Enterococcus faecium (GC 4556)): 0.5 µg/mL (≈ 0.361 µM)
MIC Enterococcus faecium (GC 4557) ([1]; Enterococcus faecium (GC 4557)): 0.5 µg/mL (≈ 0.361 µM)
MIC Enterococcus faecalis (ATCC 29212) ([1]; strain ATCC 29212): 0.5 µg/mL (≈ 0.361 µM)
MIC Enterococcus faecalis (GC 2242) ([1]; strain GC 2242): 0.5 µg/mL (≈ 0.361 µM)
MIC Enterococcus faecium (GC 2243) ([1]; strain GC 2243): 0.5 µg/mL (≈ 0.361 µM)
MIC Enterococcus faecalis (GC 2691) ([1]; strain GC 2691): 0.5 µg/mL (≈ 0.361 µM)
MIC Enterococcus faecalis (GC 3059) ([1]; strain GC 3059): 0.5 µg/mL (≈ 0.361 µM)
MIC Enterococcus faecalis (GC 4552) ([1]; strain GC 4552): 0.5 µg/mL (≈ 0.361 µM)
MIC Enterococcus faecalis (GC 4553) ([1]; strain GC 4553): 0.5 µg/mL (≈ 0.361 µM)
MIC Enterococcus faecalis (GC 4554) ([1]; strain GC 4554): 0.5 µg/mL (≈ 0.361 µM)
MIC Enterococcus faecium (GC 4556) ([1]; strain GC 4556): 0.5 µg/mL (≈ 0.361 µM)
MIC Enterococcus faecium (GC 4557) ([1]; strain GC 4557): 0.5 µg/mL (≈ 0.361 µM)
MIC Enterococcus avium (GC 4558) ([1]; strain GC 4558): 0.5 µg/mL (≈ 0.361 µM)
MIC Enterococcus faecalis (GC 6189) ([1]; strain GC 6189): 0.5 µg/mL (≈ 0.361 µM)
MIC Streptococcus agalactiae (GC 4564) ([2]; Streptococcus agalactiae (GC 4564)): 0.5 µg/mL (≈ 0.361 µM)
MIC Streptococcus pneumoniae (ATCC 6301) ([2]; Streptococcus pneumoniae (ATCC 6301)): 0.12 µg/mL (≈ 0.0867 µM)
MIC Streptococcus pneumoniae (GC 1894) ([2]; Streptococcus pneumoniae (GC 1894)): 0.12 µg/mL (≈ 0.0867 µM)
MIC Streptococcus pneumoniae (GC 4565) ([2]; Streptococcus pneumoniae (GC 4565)): 0.12 µg/mL (≈ 0.0867 µM)
MIC Streptococcus pyogenes (GC 4563) ([2]; Streptococcus pyogenes (GC 4563)): 0.12 µg/mL (≈ 0.0867 µM)
MIC Streptococcus pneumoniae (ATCC 6301) ([2]; strain ATCC 6301): 0.12 µg/mL (≈ 0.0867 µM)
MIC Streptococcus pneumoniae (GC 1894) ([2]; strain GC 1894): 0.12 µg/mL (≈ 0.0867 µM)
MIC Streptococcus pyogenes (GC 4563) ([2]; strain GC 4563): 0.12 µg/mL (≈ 0.0867 µM)
MIC Streptococcus agalactiae (GC 4564) ([2]; strain GC 4564): 0.5 µg/mL (≈ 0.361 µM)
MIC Streptococcus pneumoniae (GC 4565) ([2]; strain GC 4565): 0.12 µg/mL (≈ 0.0867 µM)
MIC Escherichia coli (ATCC 25922) ([3]; strain ATCC 25922): >0.5 µg/mL
MIC Escherichia coli (GC 4559) ([3]; strain GC 4559): >0.5 µg/mL
MIC Escherichia coli (GC 4560) ([3]; strain GC 4560): 0.5 µg/mL (≈ 0.361 µM)
MIC Coagulase Negative Staphylococcus (GC 4547) [4]: 4 µg/mL (≈ 2.89 µM)
MIC Coagulase Negative Staphylococcus (GC 4548) [4]: 4 µg/mL (≈ 2.89 µM)
MIC Coagulase Negative Staphylococcus (GC 4549) [4]: 4 µg/mL (≈ 2.89 µM)
MIC Coagulase Negative Staphylococcus (GC 4551) [4]: 8 µg/mL (≈ 5.78 µM)
MIC Coagulase Negative Staphylococcus (GC 6257) [4]: 2 µg/mL (≈ 1.45 µM)
MIC Staphylococcus aureus (ATCC 29213) [4]: 0.5 µg/mL (≈ 0.361 µM)
MIC Staphylococcus aureus (GC 1131) [4]: 0.5 µg/mL (≈ 0.361 µM)
MIC Staphylococcus aureus (GC 3051) [4]: 0.5 µg/mL (≈ 0.361 µM)
MIC Staphylococcus aureus (GC 3053) [4]: 0.5 µg/mL (≈ 0.361 µM)
MIC Staphylococcus aureus (GC 4541) [4]: 0.5 µg/mL (≈ 0.361 µM)
MIC Staphylococcus aureus (GC 4542) [4]: 0.5 µg/mL (≈ 0.361 µM)
MIC Staphylococcus aureus (GC 4544) [4]: 0.5 µg/mL (≈ 0.361 µM)
MIC Staphylococcus aureus (GC 4545) [4]: 0.5 µg/mL (≈ 0.361 µM)
MIC Staphylococcus aureus-SMITH (GC 4543) [4]: 0.5 µg/mL (≈ 0.361 µM)
MIC Staphylococcus haemolyticus (GC 4546) [4]: 0.5 µg/mL (≈ 0.361 µM)
MIC Staphylococcus haemolyticus (GC 4546) ([4]; strain GC 4546): 0.5 µg/mL (≈ 0.361 µM)
MIC Coagulase Negative Staphylococcus (GC 4547) ([4]; strain GC 4547): 4 µg/mL (≈ 2.89 µM)
MIC Coagulase Negative Staphylococcus (GC 4548) ([4]; strain GC 4548): 4 µg/mL (≈ 2.89 µM)
MIC Coagulase Negative Staphylococcus (GC 4549) ([4]; strain GC 4549): 4 µg/mL (≈ 2.89 µM)
MIC Coagulase Negative Staphylococcus (GC 4551) ([4]; strain GC 4551): 8 µg/mL (≈ 5.78 µM)
MIC Coagulase Negative Staphylococcus (GC 6257) ([4]; strain GC 6257): 2 µg/mL (≈ 1.45 µM)
MIC Staphylococcus aureus-SMITH (GC 4543) ([4]; strain SMITH GC 4543): 0.5 µg/mL (≈ 0.361 µM)
MIC Staphylococcus aureus (ATCC 29213) ([4]; strain ATCC 29213): 0.5 µg/mL (≈ 0.361 µM)
MIC Staphylococcus aureus (GC 1131) ([4]; strain GC 1131): 0.5 µg/mL (≈ 0.361 µM)
MIC Staphylococcus aureus (GC 3051) ([4]; strain GC 3051): 0.5 µg/mL (≈ 0.361 µM)
MIC Staphylococcus aureus (GC 3053) ([4]; strain GC 3053): 0.5 µg/mL (≈ 0.361 µM)
MIC Staphylococcus aureus (GC 4541) ([4]; strain GC 4541): 0.5 µg/mL (≈ 0.361 µM)
MIC Staphylococcus aureus (GC 4542) ([4]; strain GC 4542): 0.5 µg/mL (≈ 0.361 µM)
MIC Staphylococcus aureus (GC 4544) ([4]; strain GC 4544): 0.5 µg/mL (≈ 0.361 µM)
MIC Staphylococcus aureus (GC 4545) ([4]; strain GC 4545): 0.5 µg/mL (≈ 0.361 µM)
